This passage reports Km results from patent US5002886A, “Oxidoreductase and the preparation thereof” (British Gas PLC, priority 1986, dated 1991).

Structures are written as SMILES.

The assay concerns oxidoreductase. Description: Michaelis constants (Dixon and Webb method, Lineweaver-Burke plots). In kind it is biochemical, Microbacterium SP. (NCIB 12048). The note with it: two substrate enzyme; calculated from primary Lineweaver-Burke plots. As to the method:
The Michaelis constants (K^m) for NAD^+ and 1,2-ethanediol were calculated using the method described by Dixon, M and Webb, E.C. ("Enzymes", Longman Group Limited, 1964 pp. 84-86) for two substrate enzymes, based on data from primary plots constructed by the Lineweaver-Burke technique.

With `OCCO` [Monoethylene Glycol, 1,2-ethanediol], the Km is ~480 µM.
The same measure for `NC(=O)c1ccc[n+]([C@@H]2O[C@H](COP(=O)([O-])OP(=O)(O)OC[C@H]3O[C@@H](n4cnc5c(N)ncnc54)[C@H](O)[C@@H]3O)[C@@H](O)[C@H]2O)c1` [NAD^+, nicotinamide adenenine dinucleotide]: ~330 µM.
